Entries after “also recorded” stand apart in the source; their conditions may differ.
How the values were obtained:
μ opioid receptor = target: T1, μ opioid receptor (Homo sapiens, UniProt P35372); assay type: binding
T1 construct: FLAG (N); expressed in transfected cells

δ opioid receptor = target: T2, δ opioid receptor (Mus musculus, UniProt P32300); test: 3H-naloxone equilibrium binding to DOR; conditions: 3H-naloxone 2 nM tracer, mean of triplicate ± SD
T2 construct: expressed in transfected cells; host or cells: HEK 293

human MOR [1] = target: T3, human MOR (Homo sapiens, UniProt P35372); assay type: cell-based
T3 construct: FLAG (N); expressed in transfected cells; host or cells: HEK 293

human MOR [2] = target: T3, human MOR; assay type: biochemical
[3] = tested on: morphine-induced antinociception; test: antagonism of morphine antinociception, 55° C. warm-water tail flick assay; assay type: in vivo, mice; conditions: for blockade of antinociceptive actions of morphine: 10 mg/kg i.p., morphine 20 nmol i.c.v. (A90), 55° C. tail-flick; for ID50 value against morphine-induced antinociception: morphine 20 nmol i.c.v.
[4] = tested on: acute mouse model of morphine dependence; test: withdrawal jumping in acute mouse model of morphine dependence; assay type: in vivo, mice; conditions: 10 mg/kg i.p.; for withdrawal jumping: mice pretreated once with morphine 100 mg/kg s.c. -4 hr, 15 minutes observation; for reduction of jumping versus parent compound: acute morphine dependence
SH-SY5Y cells = conditions: cited from earlier work
[5] = tested on: chronic mouse model of morphine dependence; test: withdrawal jumping in chronic mouse model of morphine dependence (morphine pellet implantation); assay type: in vivo, mice; conditions: for dose needed to elicit 100 jumps/mouse / plateau of withdrawal jumping: i.p.
drug-dependent mice = conditions: cited from earlier work
DOR = DOR (Rattus norvegicus, UniProt P33533); conditions: cited from earlier work
Sequence of DOR (P33533 whole entry): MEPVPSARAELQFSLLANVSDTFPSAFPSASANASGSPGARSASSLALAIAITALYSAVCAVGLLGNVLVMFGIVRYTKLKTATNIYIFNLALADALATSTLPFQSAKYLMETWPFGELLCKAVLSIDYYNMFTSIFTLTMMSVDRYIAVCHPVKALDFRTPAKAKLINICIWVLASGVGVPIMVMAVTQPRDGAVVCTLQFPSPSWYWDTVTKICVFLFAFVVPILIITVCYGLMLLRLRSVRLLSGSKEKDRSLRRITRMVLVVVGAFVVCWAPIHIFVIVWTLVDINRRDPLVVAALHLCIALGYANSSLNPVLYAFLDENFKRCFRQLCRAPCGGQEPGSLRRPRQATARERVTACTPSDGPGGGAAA

T1 sequence (P35372 whole entry): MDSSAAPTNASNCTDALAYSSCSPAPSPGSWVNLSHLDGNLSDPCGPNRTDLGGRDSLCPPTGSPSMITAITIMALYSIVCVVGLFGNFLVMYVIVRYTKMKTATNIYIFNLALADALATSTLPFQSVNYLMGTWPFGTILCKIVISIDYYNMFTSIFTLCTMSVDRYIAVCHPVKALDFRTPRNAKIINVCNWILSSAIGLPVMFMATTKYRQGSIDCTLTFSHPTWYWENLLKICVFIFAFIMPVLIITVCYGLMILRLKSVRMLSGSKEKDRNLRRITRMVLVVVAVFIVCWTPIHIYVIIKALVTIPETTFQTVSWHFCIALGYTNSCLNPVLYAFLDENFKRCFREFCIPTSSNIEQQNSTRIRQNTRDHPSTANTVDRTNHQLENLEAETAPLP
T3 sequence (P35372 whole entry): as above
T2 sequence (P32300 whole entry): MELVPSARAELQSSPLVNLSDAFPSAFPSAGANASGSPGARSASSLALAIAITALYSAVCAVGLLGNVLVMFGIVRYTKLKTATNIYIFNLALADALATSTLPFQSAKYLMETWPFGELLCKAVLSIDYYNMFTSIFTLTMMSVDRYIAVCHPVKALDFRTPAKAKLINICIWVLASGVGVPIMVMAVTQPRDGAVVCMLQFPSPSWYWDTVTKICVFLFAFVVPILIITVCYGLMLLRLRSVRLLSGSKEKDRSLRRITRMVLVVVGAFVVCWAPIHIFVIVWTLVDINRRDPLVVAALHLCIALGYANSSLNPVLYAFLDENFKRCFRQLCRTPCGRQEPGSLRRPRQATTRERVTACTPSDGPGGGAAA

C=CCN1CC[C@]23c4c5ccc(O)c4O[C@H]2[C@H](O)CC[C@@]3(O)[C@H]1C5 [6β-Naloxol, 6β-naloxol]
Ki (μ opioid receptor): 1.1 ± 0.02 nM
Ki (δ opioid receptor): 2.3 ± 0.05 nM
effect on forskolin stimulated cAMP levels (human MOR [1]): no effect
effect on basal 35S-GTPγS binding activity (human MOR [2]): no significant effect
blockade of antinociceptive actions of morphine [3]: only partial blockade
withdrawal jumping [4]: no withdrawal jumping

C=CCN1CC[C@]23c4c5ccc(O)c4O[C@H]2C(=O)CC[C@@]3(O)[C@H]1C5 [Naloxone, naloxone, reference compound]
effect in morphine pretreated SH-SY5Y cells (SH-SY5Y cells; morphine pretreated): inverse agonist
effect in untreated SH-SY5Y cells (SH-SY5Y cells; untreated cells): little effect
blockade of antinociceptive actions of morphine [3]: blocked
ID50 value against morphine-induced antinociception ([3]; antagonist i.c.v.): 3.4 nmol
ID50 value against morphine-induced antinociception ([3]; antagonist i.p.): 1.1 mg/kg
dose needed to elicit 100 jumps/mouse [5]: ~0.3 mg/kg
plateau of withdrawal jumping [5]: approximately 200 jumps/mouse
withdrawal jumping [4]: aversive effects (withdrawal jumping); also recorded: precipitated robust withdrawal jumping

COC(=O)C=CC(=O)NC1CCC2(O)C3Cc4ccc(O)c5c4C2(CCN3CC2CC2)C1O5.Cl (stereo not drawn) [β-FNA, β-funaltrexamine HCl, reference compound]
effect on basal 35S-GTPγS binding activity (human MOR [2]): no significant effect

C=C1CC[C@@]2(O)[C@H]3Cc4ccc(O)c5c4[C@@]2(CCN3CC2CC2)[C@H]1O5 [nalmefene, reference compound]
effect on basal 35S-GTPγS binding activity (human MOR [2]): decreased

D-Phe-Cys-Tyr-D-Trp-Arg-Thr-Pen-Thr-Nh2 [CTAP]
withdrawal elicited compared with naloxone (drug-dependent mice): significantly less withdrawal than naloxone

CC(=O)N[C@@H]1CC[C@@]2(O)[C@H]3Cc4ccc(O)c5c4[C@@]2(CCN3CC2CC2)[C@@H]1O5 [6β-naltrexamide]
effect on basal 35S-GTPγS binding activity (human MOR [2]): no significant effect
blockade of antinociceptive actions of morphine [3]: effect similar to 6β-naltrexamine
potency in eliciting withdrawal jumping (in words) [5]: low potency
withdrawal jumping [4]: no withdrawal jumping

Oc1ccc2c3c1O[C@H]1[C@H](O)CC[C@@]4(O)[C@@H](C2)N(CC2CC2)CC[C@]314 [6β-Naltrexol, 6β-naltrexol]
Ki (δ opioid receptor): 2.1 ± 0.01 nM
ID50 value against morphine-induced antinociception ([3]; antagonist i.c.v.): 2.3 nmol
ID50 value against morphine-induced antinociception ([3]; antagonist i.p.): 1.0 mg/kg
dose needed to elicit 100 jumps/mouse [5]: 10 mg/kg
withdrawal jumping [4]: no withdrawal jumping

O=C(/C=C/c1ccc(Cl)cc1)N[C@@]12CCC(=O)[C@@H]3Oc4c(O)ccc5c4[C@@]31CCN(CC1CC1)[C@@H]2C5 [C-CAM, clocinnamox, reference compound]
effect on forskolin stimulated cAMP levels (human MOR [1]): increased
effect on basal 35S-GTPγS binding activity (human MOR [2]): decreased
intrinsic activity at DOR (DOR): inverse agonists

N[C@H]1CC[C@@]2(O)[C@H]3Cc4ccc(O)c5c4[C@@]2(CCN3CC2CC2)[C@H]1O5 [6α-naltrexamine]
effect on basal 35S-GTPγS binding activity (human MOR [2]): no significant effect

O=C1/C(=C/c2ccccc2)C[C@@]2(O)[C@H]3Cc4ccc(O)c5c4[C@@]2(CCN3CC2CC2)[C@H]1O5 [BNTX, 7-benzylidene-7-dehydronaltrexone, reference compound]
effect on forskolin stimulated cAMP levels (human MOR [1]): increased
effect on basal 35S-GTPγS binding activity (human MOR [2]): decreased
intrinsic activity at DOR (DOR): inverse agonists

O=C1CC[C@@]2(O)[C@H]3Cc4ccc(O)c5c4[C@@]2(CCN3CC2CC2)[C@H]1O5 [Naltrexone, naltrexone, reference compound]
blockade of antinociceptive actions of morphine [3]: blocked
ID50 value against morphine-induced antinociception ([3]; antagonist i.c.v.): 0.26 nmol
ID50 value against morphine-induced antinociception ([3]; antagonist i.p.): 0.22 mg/kg
dose needed to elicit 100 jumps/mouse [5]: approximately 0.1 mg/kg
plateau of withdrawal jumping [5]: approximately 200 jumps/mouse
withdrawal jumping [4]: aversive effects (withdrawal jumping); also recorded: precipitated robust withdrawal jumping

C=CCN1CC[C@]23c4c5ccc(O)c4O[C@H]2[C@@H](O)CC[C@@]3(O)[C@H]1C5 [6α-Naloxol, 6α-naloxol]
Ki (μ opioid receptor): 0.63 ± 0.04 nM
Ki (δ opioid receptor): 2.1 ± 0.2 nM
effect on forskolin stimulated cAMP levels (human MOR [1]): no effect
blockade of inverse-agonistic effects of β-CNA (human MOR [2]): blocked
effect on basal 35S-GTPγS binding activity (human MOR [2]): no significant effect
blockade of antinociceptive actions of morphine [3]: blocked
reduction of jumping versus parent compound [4]: approximately 50%

Oc1ccc2c3c1O[C@H]1[C@H](O)CC[C@@]4(O)[C@@H](C2)N(CC2CC2)CC[C@]314 [6α-Naltrexol, 6α-naltrexol]
Ki (δ opioid receptor): 2.4 ± 0.1 nM
blockade of antinociceptive actions of morphine [3]: blocked
reduction of jumping versus parent compound [4]: approximately 50%

N[C@@H]1CC[C@@]2(O)[C@H]3Cc4ccc(O)c5c4[C@@]2(CCN3CC2CC2)[C@H]1O5 [6β-Naltrexamine, 6β-naltrexamine]
Ki (μ opioid receptor): 0.63 ± 0.05 nM
Ki (δ opioid receptor): 2.3 ± 0.09 nM
blockade of antinociceptive actions of morphine [3]: only partial blockade
withdrawal jumping [4]: no withdrawal jumping

From patent US6713488B2 (priority 2000, dated 2004)
